Measured values published in patent publication US20260327263A1, “Anti-Bacterial Peptides” (priority 2023, published 2026).
Values joined by “and” are separate entries in the source; they are usually repeats but may differ in a detail not shown here. Equal entries are not always repeated. “Also recorded” adds a separate entry of the source. Where no end group is shown, it is not given here.

Experiments:
[1] = system: Pseudomonas aeruginosa (PA); assay: Broth microdilution anti-bacterial assay (CLSI), Pseudomonas aeruginosa; assay type: cell-based, Pseudomonas aeruginosa (ATCC 14213); conditions: for MIC / MBC: PA; for MIC: overnight, 37° C., ≥99% inhibition; for MBC: ≥99% killing; for anti-bacterial activity (in words): PA and SA
[2] = system: Staphylococcus aureus (SA); assay: Broth microdilution anti-bacterial assay (CLSI), Staphylococcus aureus; assay type: cell-based; conditions: SA; for MIC: overnight, 37° C., ≥99% inhibition; for MBC: ≥99% killing
[3] = system: mixed bacterial infection (PA, SA and ST); assay: Broth microdilution, mixed bacterial infection; assay type: cell-based; conditions: mixed infection
Method: Chronic wounds mostly present mixed infections where numerous pathogens colonize together.
(§1) Examination of the potency of modified short peptides against PA and SA strains was performed by using the broth microdilution protocol from the Clinical and Laboratory Standards Institute (CLSI) guidelines (CLSI 2012) as described. Briefly, five freshly plated bacteria colonies were grown in cation adjusted MH2 broth (BD Biosciences) in a shaker incubator at 37° C., 220 RPM. Cells were grown to an optical density (OD600) of ~0.2 measured using a Microplate Spectrophotometer (Molecular Devices Spectra Max Plus). 100 μL of microbial culture containing ~5×10^5 CFU/mL of bacteria in the respective broths were introduced into each well containing 100 μL of peptides and incubated overnight at 37° C. Next, to check the bactericidal effects, 100 μL from each well was transferred and spread on sterile MH2 agar plates. The plates were incubated overnight at 37° C. and the number of colonies forming units (CFU) were calculated the following day. Readings of bacteria grown in media without any treatments were normalized to 100% as media control. For the mixed infection study, three freshly plated bacteria colonies each from PA, SA and ST plates were grown together in cation adjusted MH2 broth and proceeded as described above.

[4] = system: Pseudomonas aeruginosa (PA); assay: Time-kill assay, Pseudomonas aeruginosa; assay type: cell-based; conditions: for time to kill PA (in words): 1X MBC; for Time kill PA, >99% killing: at 1X MBC, * indicates killing within seconds
Method: (§2) The bactericidal abilities of the variant peptides are not only effective, but also fast-acting. […] The killing kinetics are detailed in Table 11 below.
(§3) Pseudomonas aeruginosa (PA) and Staphylococcus aureus (SA) strains were grown as per CLSI guidelines. AMPs were added to the bacterial cultures at their 1X MBC concentrations. Upon treatment, the bacterial cultures were enumerated for viable counts immediately within 1 min, 5 min, 15 min, 30 min and 60 min post-treatments.

[5] = system: Staphylococcus aureus (SA); assay: Time-kill assay, Staphylococcus aureus; assay type: cell-based; conditions: for Time kill SA, >99% killing: at 1X MBC, * indicates killing within seconds
Method: as §2, §3

[6] = system: Pseudomonas aeruginosa PA BAA-2110; assay: Broth microdilution, PA BAA-2110 (lung infection in cystic fibrosis); assay type: cell-based, Pseudomonas aeruginosa (BAA-2110); conditions: PA BAA-2110
Method: (§4) Bacteria strains involved in lung infection in cystic fibrosis patients (PA-BAA 2110) and ear-eye infections (PA-CRM 9027) are treated with exemplary variant peptides, such as E1AM2 and Q19L.
as §1

[7] = system: Pseudomonas aeruginosa PA CRM-9027; assay: Broth microdilution, PA CRM-9027 (ear-eye infections); assay type: cell-based, Pseudomonas aeruginosa (CRM-9027); conditions: PA CRM-9027
Method: as §4, §1

[8] = system: Pseudomonas aeruginosa (PA); assay: Antimicrobial resistance evolution assay, PA; assay type: cell-based; conditions: for development of antimicrobial resistance, PA: serial passaging, 28 days, resistance = >4-fold MIC change
Description: (§5) The development of antimicrobial resistance is defined by greater than a 4-fold change to their initial minimum inhibitory concentration (MIC) at day 1. Exemplary bacteria strains Pseudomonas aeruginosa (PA) and Staphylococcus aureus (SA) are subjected to continuous daily serial passaging over several days, with treatment of exemplary variant peptides E1AM2 (SEQ ID NO: 2) and Q19L (SEQ ID NO: […]) at subinhibitory concentrations. […] The treatments were discontinued when the MIC increased by more than four-fold from the initial MIC or when MIC reached >100 μM.
(§6) Briefly, sequential passaging of PA, and SA cells was done with sub-inhibitory concentrations of antibiotics or E1AM2 up to 4 weeks. The cells grown in those concentrations of antibiotics or peptides were diluted to A600 nm (OD600) of ~0.2 and serially passaged daily with the same concentrations at 37° C. with agitation at 24 h intervals.

[9] = system: human red blood cells (hRBCs); assay: Hemolysis assay; assay type: cell-based; conditions: hRBCs; for minimum concentration corresponding to 10% hemolysis (HC): 37° C., 30 min; for hemolysis (in words): FIG. 8 up to 100 μM
Method: (§7) The hemolytic score of the peptide variants and pexiganan (SEQ ID NO: 54) are compared to a strong hemolytic peptide, melittin 12 as a control. […] The minimum peptide concentration corresponding to 10% hemolysis (minimal hemolysis concentration, HC) of E1AM2=50 μM, V8LQ19L=12.5 μM, V8LQ19L C-2=3.125 μM, and pexiganan=12.5 μM respectively. Readings of the melittin at 3.125 μM were normalised to 100%.
(§8) Examination of hemolytic activity of ultra-short peptides was performed by isolating the red blood cells (RBCs) from human blood samples by centrifugation (1000 g, 4° C., 10 min) and resuspension in 27 mL PBS. This washing step was repeated four times before the RBCs were diluted to a 10% (v/v) suspension. […] Hemolytic properties of E1AM2 and pexiganan were evaluated with melittin used as a positive control, and PBS as a negative control. The plates were incubated at 37° C., for 30 min and then centrifuged (1258 g, 4° C., 6 min). 75 μL of supernatant were transferred into a flat-bottom clear 96-well plate and the OD576 nm was read. Readings of the melittin sample at 3.125 μM were normalized to 100%.

[10] = system: human keratinocytes (HaCaT); assay: Cell proliferation assay, HaCaT keratinocytes; assay type: cell-based; conditions: 100 μM; cell line not named in Table 15
Method: (§9) Wound closure was compared with the untreated samples (circle, red highlight). For improved clarity, error bars have been omitted from this representation. […] Each value is the mean±SD (n=3). Statistical significance was assessed using ANOVA for multiple comparisons (Dunnett's multiple comparisons test). **** p<0.0001, *** p<0.001, ** p<0.01, *p<0.05, ns denotes nonsignificance, p >0.05.
CyQUANT™ Direct Cell Proliferation Assay (ThermoFisher Scientific, Catalogue) was performed as per manufacturer's instructions to determine the safety of the peptides to human keratinocytes. […] The fluorescence intensity and number of stained cells were determined using the LionHeart FX Automated Microscope (BioTek, VT, USA).

[11] = system: fibroblasts (HFF-1); assay: Cell proliferation assay, HFF-1 fibroblasts; assay type: cell-based; conditions: 24 h; certain concentrations
[12] = Comparison of AMPs in clinical trial with V8LQ19L (Table 13); conditions: ✓ / X
[13] = Hemolysis assay; assay type: cell-based, human; conditions: human, red blood cells; at respective MIC/MBC concentrations; melittin 3.125 μM = 100%
Method: as §7, §8

[14] = system: Staphylococcus aureus (SA); assay: Antimicrobial resistance evolution assay, SA; assay type: cell-based; conditions: serial passaging; resistance = >4-fold MIC change
Description: as §5, §6

[15] = system: human keratinocytes; assay: 2D scratch assay, keratinocyte migration; assay type: cell-based
Method: Wound healing is directly associated with the migration speed of keratinocytes. The migration speed of human keratinocytes in presence of E1AM2, V8L (SEQ ID NO: 19), and Q19L variants is tested in comparison with pexiganan (SEQ ID NO: 54). Migration speed of human keratinocytes assessed in a 2D scratch assay at D 0 and D 2 timepoints. Decrease in wound area over time was measured by applying an ImageJ plugin ‘Wound Healing Size Tool’ on bright-field images. The change in wound area over the course of 48 hours was used as a measure of the migration speed of keratinocytes. Each value is the mean±SD (n=3). The p-value was calculated using ANOVA for multiple comparisons (Dunnett's multiple comparisons test). **** p<0.0001. *** p<0.001. ** p <0.01. * p<0.05. […] Both peptides healed wound faster within their respective MIC and MBC concentrations. […] SEQ ID NO: 27=Q19L; SEQ ID NO: 2=E1AM2; SEQ ID NO: 19=V8L.
as §9
Wound areas of the human keratinocyte culture were assessed in presence of peptides in a 2D scratch assay at the 0 hour, and 48-hour time points by applying an ImageJ plugin, ‘Wound Healing Size Tool’ on brightfield images. Quantification of wound width was calculated by obtaining the averaged Euclidean distance between each paired pixel at the lateral wound edges. The change in wound area over the course of 48 hours was used as a measure of the migration speed of keratinocytes.
Using the inverted BioTek Lionheart LX Automated Microscope, brightfield images were obtained at 4× magnification to observe the wound area at timepoints 0 (before treatment) and 48 hours-post treatment. Microscopy settings were maintained as focus offset (781.3 μm), illumination (2), integration Time (21) with no gain. To cover the entire well, montage images of four rows by three columns were stitched together by enabling the “image stitching” function and images were saved in tiff-format.

Row | Substance | MIC [1] [µM] | MBC [1] | MIC [2] | MBC [2] [µM] | time to kill PA (in words) [4] | Time kill PA, >99% killing [4] [min] | Time kill SA, >99% killing [5] [min] | MBC [6] [µM] | MIC [6] [µM] | MBC [7] [µM] | MIC [7] [µM] | development of antimicrobial resistance, PA [8] | minimum concentration corresponding to 10% hemolysis (HC) [9] [µM] | hemolysis (in words) [9] | anti-bacterial activity (in words) [1] | also measured
1 | GIGKFLKKAKKFGKAFVKILKK-NH2 [Pexiganan, reference compound] | 3.125 | 6.25 µM | 6.25 µM and 6.12 µM | 12.5 | took the longest time to kill >99% PA | >5 to 15 | 1 | 6.25 | 3.125 | 3.125 | 3.125 | developed resistance | 12.5 | none of the peptide variants or pexiganan caused significant hemolysis | – | MIC ([1]; listed as PEX): 3.128 µM and 3.125 µM; MBC ([1]; listed as PEX): 6.25 µM and 8.25 µM; MIC/MBC relative to E1AM2, SA [2]: two-higher value; MIC ([2]; listed as PEX): 6.25 µM and 6.26 µM; MBC ([2]; listed as PEX): 12.8 µM and 12.5 µM and 12.6 µM; MBC [3]: 12.5 µM; MIC [3]: 6.25 µM; AMR prevention / resistance induction ([8]; Table 15: in PA and SA, bacteria not named): Gives rise to AMR; Cytotoxicity at high concentration (100 μM) [10]: Cytotoxic; HFF-1 proliferation [11]: enhanced proliferation; Broad spectrum activity [12]: ✓; Healing support [12]: ✓
2 | KKLLKKWLKLSKKALKLAL-NH2 [V8LQ19L C-2] | 1.56 | 1.56 µM | 1.56 µM | 1.56 | – | – | – | – | – | – | – | – | 3.125 | do not cause hemolysis | strong potency | hemolysis at 0.5 h [13]: ~0%
3 | KKLLKKWVKLSKKALKLALSL-NH2 [Q19L] | 3.125 | 3.125 µM and 6.25 µM | 3.125 µM | 3.125 | within minutes | >1.5 | 1 | 6.25 | 6.25 | 6.25 | 6.25 | prevented resistance acquisition | – | – | reduction in the minimum inhibitory concentration (MIC) and minimum bactericidal concentration (MBC) values | time to kill SA (in words) ([5]; 1X MBC): within minutes; development of antimicrobial resistance, SA [14]: prevented resistance development; migration speed of keratinocytes ([15]; 48 h, E1AM2 3.125-12.5 μM, Q19L 3.125-6.25 μM): increase keratinocyte migration; also recorded: increased the migration speed of keratinocytes significantly; migration delay of keratinocytes ([15]; only at highest concentrations (100 μM)): significant migration delay
